Reference: patent publication US11040054B2, “Estrogen sensing through GPER1 regulates normal and malignant liver growth” (The Brigham and Women's Hospital, Inc., priority 2016, dated 2021)
One block for each compound: values may come before it.

What was measured:
[1] = test system: PI3K/Akt, MAPK/Erk and mTORC1 pathways; test: Western blot analysis of whole larvae (p-Akt, p-Erk, p-S6); format: in vivo, zebrafish
Text: Pooled larvae (n=30-40) and cultured cells were homogenized in radioimmunoprecipitation assay (RIPA) lysis buffer and processed as previously described.^15 Lysates were separated by gel electrophoresis and subjected to Western blot.

zebrafish larvae liver = test: Larval liver size analysis (ISH for fabp10a, fabp10a:GFP imaging) at 120 hpf; format: in vivo; conditions: for liver size at 120 hpf: compound alone, exposure 110-115 hpf; for liver size in gper1−/− mutants or gper1 morphants: gper1 loss of function larvae; for effect on E2-induced enhancement in liver size: co-exposure with E2 (or knockdown plus E2)
Method: Zebrafish larvae were exposed to chemicals, dissolved in 0.1% (v/v) dimethylsulfoxide (DMSO), at specified doses for 5 hrs. from 110-115 hours post fertilization (hpf) and analyzed at 120 hpf (unless otherwise specified). Adults were treated for 5-7 hrs. per exposure with frequency as described.
Larvae were fixed with paraformaldehyde and in situ hybridization (ISH) performed according to standard protocols.^16 gper1 probe was generously gifted by David Volz.^17
ISH images were obtained by brightfield microscopy, and fabp10a:GFP reporter larvae were imaged using fluorescence microscopy. 3D imaging of fabp10a:GFP fish was performed with a Zeiss LightsheetZ.1. […] were fixed and paraffin embedded. Tissues were sectioned (5 μm) and stained with hematoxylin & eosin (H&E). De-identified formalin-fixed paraffin-embedded human liver sections were obtained from pathology files of the University of Utah (IRB 00091019) and commercially available tissue arrays (OD-CT-DgLiv01-003, US Biomax). Immunohistochemistry (IHC) (using antibodies listed in Table 4) and terminal deoxynucleotidyl transferase dUTP nick-end labeling (TUNEL) staining were performed using established protocols.^16 GPER1 staining was scored by a pathologist based on the mean amount of cytoplasmic reactivity in hepatic cells: 0+, minimal/no staining; 1+, faint/mild staining; 2+, moderate staining; 3+, strong staining.

fabp10a:GFP+ hepatocytes = conditions: zebrafish, in vivo
[2] = test system: liver tumors in DMBA-exposed WT zebrafish; test: DMBA chemical carcinogenesis followed by chemical prevention trial
[3] = test system: hepatocytes in larval liver; conditions: for PCNA+ cells in the liver: compound alone, larvae
HepG2 cells = test: HepG2 signaling immunoblot (p-Akt, p-S6); conditions: G15 500 nM co-exposure with E2 10 nM
GPER1 = GPER1 (Homo sapiens, UniProt Q99527); conditions: cited from earlier work
[4] = test system: regenerating larval liver; test: Liver regeneration after metronidazole (Mtz) hepatocyte ablation in Tg(fabp10a:CFP-NTR) larvae
hepatic lesions = conditions: in vivo; cited from earlier work

Chain of GPER1 (Q99527 whole entry): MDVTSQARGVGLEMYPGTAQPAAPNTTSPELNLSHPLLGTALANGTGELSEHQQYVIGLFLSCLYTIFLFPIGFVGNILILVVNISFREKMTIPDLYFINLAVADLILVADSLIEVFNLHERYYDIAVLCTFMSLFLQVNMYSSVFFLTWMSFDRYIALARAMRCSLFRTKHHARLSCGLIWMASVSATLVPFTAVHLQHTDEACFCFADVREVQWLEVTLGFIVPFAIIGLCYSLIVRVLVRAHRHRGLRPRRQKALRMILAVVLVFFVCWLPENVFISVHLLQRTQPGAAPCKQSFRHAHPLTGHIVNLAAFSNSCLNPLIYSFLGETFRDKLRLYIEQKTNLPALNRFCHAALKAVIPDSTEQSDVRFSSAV

Compound: 740Y-P
- p-Akt in gper1−/− mutants ([1]; gper1−/− whole larvae): restored to WT levels
- larvae with increased liver size (zebrafish larvae liver; WT larvae, 120 hpf, larvae with phenotype out of total observed): 77%
- liver size at 120 hpf (zebrafish larvae liver; WT larvae): increased liver size
- liver size in gper1−/− mutants or gper1 morphants (zebrafish larvae liver; 120 hpf): rescued liver growth
- gper1 morphants with small liver phenotype rescued (zebrafish larvae liver; gper1 morphants, 120 hpf): 61%

- hepatocytes in G2/M phase (fabp10a:GFP+ hepatocytes): 2.9%
- hepatocytes in S phase (fabp10a:GFP+ hepatocytes): 16.2%
- effect on E2-induced increase in PCNA+ hepatocytes ([3]; zebrafish, in vivo): inhibited
Compound: Brc1cc2c(cc1[C@@H]1Nc3ccccc3[C@@H]3C=CC[C@@H]31)OCO2 (racemic) [G-15, (3aS,4R,9bR)-4-(6-Bromo-1,3-benzodioxol-5-yl)-3a,4,5,9b-3H-cyclopenta[c]quinoline]
- impact of blockade on E2-induced tumor size, sex-stratified ([2]; E2+G-15, male vs female fish): predominantly observed in male, less in female fish
- liver tumor size (mean) ([2]; E2+G-15 co-exposure, up until 9 mpf): 0.4 mm
- effect on E2-induced enhancement in liver size (zebrafish larvae liver; WT larvae, 120 hpf): specifically inhibited
- liver size at 120 hpf (zebrafish larvae liver; WT larvae): reduced liver size
- PCNA+ cells in the liver [3]: decreased
- effect on E2-associated increases in p-Akt and p-S6 (HepG2 cells): blocked

Compound: CC/C(=C(\c1ccc(O)cc1)c1ccc(OCCN(C)C)cc1)c1ccccc1 [4-OHT]
- action on GPER1 (GPER1): activated

- hepatocytes in G2/M phase (fabp10a:GFP+ hepatocytes): 9.4%
- hepatocytes in S phase (fabp10a:GFP+ hepatocytes): 21.8%
- total hepatocyte number by FACS (fabp10a:GFP+ hepatocytes): increased
Compound: CC(=O)c1ccc2c(c1)C1C=CCC1C(c1cc3c(cc1Br)OCO3)N2 (stereo not shown) [G-1]
- phosphorylated S6 (p-S6) ([1]; WT whole larvae): increased phosphorylated S6
- liver size at 120 hpf (zebrafish larvae liver; WT larvae): increased liver size
- liver size in gper1−/− mutants or gper1 morphants (zebrafish larvae liver; 120 hpf): did not respond
- liver size in hypomorphic mtor mutants (zebrafish larvae liver; mtor mutants, 120 hpf): did not change
- PCNA+ cells in the liver [3]: fractional increase
- liver size at 30 hpT after Mtz ablation ([4]; WT larvae, chemical incubation for 5 hours, vs controls): significantly larger liver size
- liver regrowth after ablation in gper1−/− mutants ([4]; gper1−/− larvae): not enhanced
- liver regrowth after ablation in mtor−/− mutants ([4]; mtor−/− larvae): not impacted

Compound: O=c1cc(N2CCOCC2)oc2c(-c3ccccc3)cccc12 [LY292002]
- larvae with decreased liver size (zebrafish larvae liver; 120 hpf, larvae with phenotype out of total observed): 72%
- larvae in which estrogenic effect on liver size was blocked (zebrafish larvae liver; co-treatment of E2 and LY292002, WT larvae, 120 hpf): 86%

Compound: NC1(c2ccc(-c3nc4ccn5c(=O)[nH]nc5c4cc3-c3ccccc3)cc2)CCC1 [MK-2206]
- effect on E2-induced enhancement in liver size (zebrafish larvae liver; WT larvae, 120 hpf): diminished this effect
- liver size at 120 hpf (zebrafish larvae liver; WT larvae): decreased liver size

Compound: CC(C)(C#N)c1cc(Cn2cncn2)cc(C(C)(C)C#N)c1 [anastrozole]
- liver size at 120 hpf (zebrafish larvae liver; WT larvae): decrease in liver size

Compound: C[C@]12CC[C@@H]3c4ccc(O)cc4C[C@@H](CCCCCCCCC[S+]([O-])CCCC(F)(F)C(F)(F)F)[C@H]3[C@@H]1CC[C@@H]2O (stereo partly shown) [fulvestrant]
- action on GPER1 (GPER1): activated

Compound: CC/C(=C(\c1ccccc1)c1ccc(OCCN(C)C)cc1)c1ccccc1 [tamoxifen]
- size and number of hepatic lesions (hepatic lesions): increased the size and number of hepatic lesions
- action on GPER1 (GPER1): agonist
